Experimental data taken from PubChem BioAssay (NCI).
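Assay format: 96-well plates, 48-hour exposure. The concentration for 50% growth inhibition is given as GI50. TGI denotes the concentration required for complete inhibition of growth.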

Assays:
Experiment in all cases: growth of human tumour cells (NCI), 48 h
OVCAR-3 ovarian = system: OVCAR-3 ovarian
SK-OV-3 ovarian = system: SK-OV-3 ovarian
NCI/ADR-RES ovarian = system: NCI/ADR-RES ovarian
MDA-MB-231 breast = system: MDA-MB-231 breast
SF-268 CNS = system: SF-268 CNS
RXF 393 renal = system: RXF 393 renal
MDA-MB-435 = system: MDA-MB-435
RPMI-8226 leukemia = system: RPMI-8226 leukemia
LOX IMVI melanoma = system: LOX IMVI melanoma
OVCAR-4 ovarian = system: OVCAR-4 ovarian
NCI-H23 lung = system: NCI-H23 lung
K-562 leukemia = system: K-562 leukemia
U251 CNS = system: U251 CNS
HT29 colon = system: HT29 colon
SNB-75 CNS = system: SNB-75 CNS
IGROV1 ovarian = system: IGROV1 ovarian
CCRF-CEM leukemia = system: CCRF-CEM leukemia
HCC-2998 colon = system: HCC-2998 colon
OVCAR-5 ovarian = system: OVCAR-5 ovarian
SR leukemia = system: SR leukemia
NCI-H522 lung = system: NCI-H522 lung
T-47D breast = system: T-47D breast
M14 melanoma = system: M14 melanoma
KM12 colon = system: KM12 colon
PC-3 prostate = system: PC-3 prostate
ACHN renal = system: ACHN renal
MCF7 breast = system: MCF7 breast
SNB-19 CNS = system: SNB-19 CNS
NCI-H226 lung = system: NCI-H226 lung
HCT-116 colon = system: HCT-116 colon
SK-MEL-28 melanoma = system: SK-MEL-28 melanoma
HOP-62 NSCLC = system: HOP-62 NSCLC
COLO 205 colon = system: COLO 205 colon
CAKI-1 renal = system: CAKI-1 renal
HCT-15 colon = system: HCT-15 colon
SK-MEL-2 melanoma = system: SK-MEL-2 melanoma
NCI-H460 lung = system: NCI-H460 lung
DU-145 prostate = system: DU-145 prostate
UACC-257 melanoma = system: UACC-257 melanoma
A498 renal = system: A498 renal
A549 NSCLC = system: A549 NSCLC
BT-549 breast = system: BT-549 breast
SF-539 CNS = system: SF-539 CNS
TK-10 renal = system: TK-10 renal
SW-620 colon = system: SW-620 colon
OVCAR-8 ovarian = system: OVCAR-8 ovarian
SN12C renal = system: SN12C renal
HS 578T breast = system: HS 578T breast
SF-295 CNS = system: SF-295 CNS
SK-MEL-5 melanoma = system: SK-MEL-5 melanoma
MOLT-4 leukemia = system: MOLT-4 leukemia
UACC-62 melanoma = system: UACC-62 melanoma

`Nc1ncc(-c2ccc3ncnc(N4CCc5ccc(Cl)cc54)c3c2)cn1` gave a GI50 (OVCAR-3 ovarian) of 1.88 µM, a TGI (OVCAR-3 ovarian) greater than 100 µM and a GI50 (SK-OV-3 ovarian) of 1.37 µM. For the same compound, the TGI (SK-OV-3 ovarian) was 7.03 µM, the GI50 (NCI/ADR-RES ovarian) was 1.86 µM and the TGI (NCI/ADR-RES ovarian) was greater than 100 µM. The GI50 (MDA-MB-231 breast) was 0.994 µM, the TGI (MDA-MB-231 breast) was greater than 100 µM and the GI50 (SF-268 CNS) was 1.63 µM. It also gave a TGI (SF-268 CNS) greater than 100 µM, a GI50 (RXF 393 renal) of 0.606 µM and a TGI (RXF 393 renal) of 3 µM. The GI50 (MDA-MB-435) was 2.19 µM, the TGI (MDA-MB-435) was greater than 100 µM and the GI50 (RPMI-8226 leukemia) was 0.584 µM. For the same compound, the TGI (RPMI-8226 leukemia) was 4.44 µM, the GI50 (LOX IMVI melanoma) was 0.87 µM and the TGI (LOX IMVI melanoma) was 23.5 µM. The GI50 (OVCAR-4 ovarian) was 1.61 µM, the TGI (OVCAR-4 ovarian) was 24.8 µM and the GI50 (NCI-H23 lung) was 1.9 µM. For the same compound, the TGI (NCI-H23 lung) was greater than 100 µM, the GI50 (K-562 leukemia) was 2.22 µM and the TGI (K-562 leukemia) was greater than 100 µM. For the same compound, the GI50 (U251 CNS) was 2.46 µM, the TGI (U251 CNS) was greater than 100 µM and the GI50 (HT29 colon) was 1.06 µM. It also gave a TGI (HT29 colon) of 82.6 µM, a GI50 (SNB-75 CNS) of 0.418 µM and a TGI (SNB-75 CNS) of 3.98 µM. The GI50 (IGROV1 ovarian) was 0.291 µM, the TGI (IGROV1 ovarian) was 2.34 µM and the GI50 (CCRF-CEM leukemia) was 1.02 µM. The TGI (CCRF-CEM leukemia) was greater than 100 µM, the GI50 (HCC-2998 colon) was 1.5 µM and the TGI (HCC-2998 colon) was 87.2 µM. For the same compound, the GI50 (OVCAR-5 ovarian) was 0.532 µM, the TGI (OVCAR-5 ovarian) was greater than 100 µM and the GI50 (SR leukemia) was 1.04 µM. The TGI (SR leukemia) was 18.1 µM, the GI50 (NCI-H522 lung) was 2.66 µM and the TGI (NCI-H522 lung) was 15.8 µM. For the same compound, the GI50 (T-47D breast) was 0.313 µM, the TGI (T-47D breast) was 30 µM and the GI50 (M14 melanoma) was 1.88 µM. For the same compound, the TGI (M14 melanoma) was greater than 100 µM, the GI50 (KM12 colon) was 2.34 µM and the TGI (KM12 colon) was 97.6 µM. It also gave a GI50 (PC-3 prostate) of 0.739 µM, a TGI (PC-3 prostate) greater than 100 µM and a GI50 (ACHN renal) of 0.584 µM. For the same compound, the TGI (ACHN renal) was greater than 100 µM, the GI50 (MCF7 breast) was 0.684 µM and the TGI (MCF7 breast) was 31.7 µM. The GI50 (SNB-19 CNS) was 2.55 µM, the TGI (SNB-19 CNS) was greater than 100 µM and the GI50 (NCI-H226 lung) was 1.35 µM. For the same compound, the TGI (NCI-H226 lung) was 27.4 µM, the GI50 (HCT-116 colon) was 1.68 µM and the TGI (HCT-116 colon) was 10.8 µM. The GI50 (SK-MEL-28 melanoma) was 2.01 µM, the TGI (SK-MEL-28 melanoma) was greater than 100 µM and the GI50 (HOP-62 NSCLC) was 0.743 µM. For the same compound, the TGI (HOP-62 NSCLC) was greater than 100 µM, the GI50 (COLO 205 colon) was 2.01 µM and the TGI (COLO 205 colon) was 9.53 µM. The GI50 (CAKI-1 renal) was 1.19 µM, the TGI (CAKI-1 renal) was greater than 100 µM and the GI50 (HCT-15 colon) was 1.33 µM. For the same compound, the TGI (HCT-15 colon) was greater than 100 µM, the GI50 (SK-MEL-2 melanoma) was 1.56 µM and the TGI (SK-MEL-2 melanoma) was 4.53 µM. It also gave a GI50 (NCI-H460 lung) of 1.46 µM, a TGI (NCI-H460 lung) greater than 100 µM and a GI50 (DU-145 prostate) of 0.971 µM. For the same compound, the TGI (DU-145 prostate) was greater than 100 µM, the GI50 (UACC-257 melanoma) was 2.98 µM and the TGI (UACC-257 melanoma) was greater than 100 µM. For the same compound, the GI50 (A498 renal) was 0.248 µM, the TGI (A498 renal) was 0.8 µM and the GI50 (A549 NSCLC) was 1.26 µM. It also gave a TGI (A549 NSCLC) greater than 100 µM, a GI50 (BT-549 breast) of 0.603 µM and a TGI (BT-549 breast) of 8.51 µM. For the same compound, the GI50 (SF-539 CNS) was 1.11 µM, the TGI (SF-539 CNS) was 3.79 µM and the GI50 (TK-10 renal) was 0.354 µM. It also gave a TGI (TK-10 renal) of 3.85 µM, a GI50 (SW-620 colon) of 2.83 µM and a TGI (SW-620 colon) greater than 100 µM. For the same compound, the GI50 (OVCAR-8 ovarian) was 1.84 µM, the TGI (OVCAR-8 ovarian) was greater than 100 µM and the GI50 (SN12C renal) was 0.813 µM. For the same compound, the TGI (SN12C renal) was greater than 100 µM, the GI50 (HS 578T breast) was 0.437 µM and the TGI (HS 578T breast) was 4.39 µM. The GI50 (SF-295 CNS) was 1.03 µM, the TGI (SF-295 CNS) was 6.89 µM and the GI50 (SK-MEL-5 melanoma) was 1.46 µM. For the same compound, the TGI (SK-MEL-5 melanoma) was 4.94 µM, the GI50 (MOLT-4 leukemia) was 0.563 µM and the TGI (MOLT-4 leukemia) was 3.81 µM. It also gave a GI50 (UACC-62 melanoma) of 1.31 µM and a TGI (UACC-62 melanoma) of 5.98 µM.
